The source of these data is patent publication US8669256B2, “Substituted thieno[2,3-b]pyrazine compounds as modulators of B-Raf kinase activity” (Merck Sharp & Dohme B.V., priority 2010, dated 2014).

Where two headings read alike, the source gives them in different places. Some results are limits rather than exact numbers.

The test system of test [1] is phosphorylation of ERK1/2 in A375 cells containing mutant B-Raf (V600E). Description: Phospho-ERK FACE assay in A375 (B-Raf mutated) melanoma cell line. Type of test: cell-based. Particulars: Homo sapiens, A-375, A375 cells, 2 hours incubation, read-out: IC50, A375 melanoma phospho-ERK assay. How it is done: The B-Raf activity can also be determined in a B-Raf mutated melanoma cell line, such as the A375 cell line. Inhibition of phosphorylation of ERK1/2 can be measured using a Fast Activated Cell-based ELISA (FACE) from Active Motif (Carlsbad, U.S.A., CA). E.g. A375 cells, which are cells containing a mutant form of B-Raf (V600E) and thus contain high levels of phosphorylated ERK, can be incubated with Raf inhibitors. Then cells can be incubated with anti-phospho-ERK antibody and subsequently with horse radish peroxidase (HRP)-labeled secondary antibody. Finally, chemiluminescence reagents can be added, which react with HRP, to give a luminescence signal.
Determination of B-Raf Activity Using a A375 (B-Raf mutated) Melanoma Cell Line (Phospho-ERK FACE Assay)
Inhibition of phosphorylation of ERK1/2 was measured using a Fast Activated Cell-based ELISA (FACE) from Active Motif (Carlsbad, U.S.A., CA). Briefly, A375 cells, which are cells containing a mutant form of B-Raf (V600E) and thus contain high levels of phosphorylated ERK, were incubated for 2 hours with Raf inhibitors. Then, cells were fixed with paraformaldehyde, washed and following quenching and blocking, incubated with anti-phospho-ERK antibody, and as a control, on a separate plate, with ERK antibody. After washing and removal of the primary antibodies, the fixed cells were incubated with horse radish peroxidase (HRP)-labeled secondary antibody. Finally, chemiluminescence reagents were added, which react with HRP, to give a luminescence signal.
Detailed protocol: A375 cells were cultured in DMEM/F12 (Dulbecco's Modified Eagle Medium Nutrient Mixture F-12) (Invitrogen), supplemented with 10% fetal bovine serum (FBS) (Biowhittaker), 100 U/ml penicillin G and 100 μg/ml streptomycin (Gibco). For the phospho ERK assay, cells were seeded at a density of 15,000 cells/well in 100 μl culture medium in 96-well plates and incubated in a humidified atmosphere at 5% CO2 and 37° C. After 24 hours, cells were washed with DMEM/F12 supplemented with 0.1% FBS (assay medium 120 μl of assay medium was added and the plates were incubated overnight in a humidified atmosphere at 5% CO2 and 37° C. The next day, the assay medium was removed and compounds diluted in assay medium were added to the cells. Final DMSO concentration in the assay was 1%. After 2 hours incubation, cells were fixed by replacing the assay medium with 100 μl of 4% formaldehyde (Bio-Connect, Huissen, The Netherlands) in PBS. After 20 minutes of incubation at room temperature, cells were washed three times with 200 μl wash buffer (0.1% (vol/vol) Triton X-100 in PBS from the FACE kit) followed by an incubation of 20 minutes with 100 μl quenching buffer, containing 1% (vol/vol) hydrogen peroxide (Thermo Fisher Scientific) and 0.1% (vol/vol) sodium azide (Sigma-Aldrich) in phosphate-buffered saline. Cells were washed two times with wash buffer, incubated for 1 hour with 100 μl antibody blocking buffer from the kit and washed two times again. 40 μl of diluted antibody against phosphorylated ERK1/2 (1:500 from the FACE kit) was added and incubated overnight at 4° C. The phospho-ERK antibody has been raised against a synthetic phospho-peptide corresponding to residues Thr202 and Tyr204 of human ERK1 and Thr185 and Tyr187 of human ERK2. For the detection of total ERK, antibody against ERK1 and ERK2 (1:500 from the FACE kit) was added. The excessive primary antibody was washed out, and 100 μl diluted HRP-conjugated anti-rabbit IgG (1:2000 from the FACE kit) was added and incubated for 1 hour at room temperature. Secondary antibody was removed and cells were washed 3 times with wash buffer and twice with PBS. 50 μl per well of FACE chemiluminescent working solution was added. Chemiluminescence was measured on an Envision Multilabel reader.

The target of test [2] is T1, GST-tagged human recombinant active B-Raf (Δ1-415) (Homo sapiens, UniProt P15056).
T1 construct: GST; purchased Upstate/Millipore
T1 sequence (P15056 416-766, stated change not applied): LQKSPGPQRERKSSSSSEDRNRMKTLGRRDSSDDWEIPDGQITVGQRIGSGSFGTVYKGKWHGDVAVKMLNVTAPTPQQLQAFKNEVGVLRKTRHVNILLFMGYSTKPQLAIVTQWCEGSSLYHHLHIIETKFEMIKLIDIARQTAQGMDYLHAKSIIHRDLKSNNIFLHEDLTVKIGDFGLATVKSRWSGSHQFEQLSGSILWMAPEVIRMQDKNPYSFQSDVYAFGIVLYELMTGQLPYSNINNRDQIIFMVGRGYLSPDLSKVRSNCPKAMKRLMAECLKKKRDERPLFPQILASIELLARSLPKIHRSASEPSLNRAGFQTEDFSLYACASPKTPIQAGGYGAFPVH
As to the kind of experiment: B-Raf kinase activity, IMAP coupled assay (B-Raf/MEK1/ERK2, fluorescence polarization). The format is biochemical. The settings on record: bounds also given as pIC50 (>6, >7, >8); 60 min pre-incubation with compound, ATP 50 μM; read-out: IC50, B-Raf IMAP assay.
Excerpt: (§1) In another assay the B-Raf kinase activity can be determined by using an IMAP assay (Immobilized Metal Assay for Phosphochemicals-based coupled assay). IMAP is a homogeneous fluorescence polarization (FP) assay based on affinity capture of phosphorylated peptide substrates. IMAP uses fluorescein-labeled peptide substrates that, upon phosphorylation by a protein kinase, bind to so called IMAP nanoparticles, which are derivatized with trivalent metal complexes. Such binding causes a change in the rate of the molecular motion of the peptide, and results in an increase in the FP value observed for the fluorescein label attached to the substrate peptide. In such an assay, B-Raf phosphorylates unactive MEK1. The phosphorylated MEK1 is capable of phosphorylating ERK2, which subsequently phosphorylates the fluorescein-labeled peptide substrate.
Determination of B-Raf Kinase Activity using an IMAP Assay
as §1, with “Inhibition of” for “In another assay the”, “was measured” for “can be determined by”, “Immobilized” for “IMAP assay (Immobilized”, “assay (IMAP).” for “assay).”, “this” for “such an”
Enzymes, substrate and ATP were diluted at all steps in Kinase Reaction buffer (10 mM Tris-HCl, 10 mM MgCl2, 0.01% Tween-20, 0.05% NaN3 pH 7.2, 1 mM DTT). The final volume at the kinase reaction step of the assay in the 384-well plate was 20 μl. The concentrations within brackets are final concentrations in the assay. B-Raf (GST-tagged human recombinant active B-Raf (Δ1-415), Upstate/Millipore; 0.2 U/ml) was pre-incubated with compounds or DMSO (1% final concentration) for 60 minutes at room temperature in the dark. Thereafter, MEK 1 (GST-tagged human recombinant unactive MEK1 (full-length); 64 ng/ml), ERK2 (GST-tagged human recombinant unactive ERK2 (full-length); 600 ng/ml), peptide substrate (Erktide, Molecular Devices; 50 nM) and ATP (50 μM) were added to the wells and the mix was incubated for another 60 minutes at 30° C. in the dark. Then, IMAP progressive binding buffer (75% 1× buffer A, 25% 1× buffer B, 1:900 Progressive Binding Reagent; Molecular Devices) was added followed by an incubation step of 60 minutes at room temperature in the dark. Finally, the FP signal was read on an Envision Multilabel reader (Perkin Elmer).
On the technique in general: Polarisation of emitted light reports the rotation of a fluorescent probe.

Where [3] appears, read: class given as below 100 nM (pIC50>7).
The mark [4] stands for this setting: between 1 μM and 100 nM (6<pIC50<7).

`Cc1ccc(NC(=O)c2cccc(C(C)(C)C#N)c2)cc1NC(=O)c1sc2nccnc2c1N` [Example 1, 7-amino-N-(5-(3-(2-cyanopropan-2-yl)benzamido)-2-methylphenyl)thieno[2,3-b]pyrazine-6-carboxamide]: the IC50 (commonly the concentration at which inhibition is half-maximal) in test [1] (setting [3]) was below 100 nM; in test [2], below 10 nM.

`CNc1c(C(=O)Nc2cc(NC(=O)c3cccc(C(C)(C)C#N)c3)ccc2C)sc2nccnc12` [Example 2, N-(5-(3-(2-cyanopropan-2-yl)benzamido)-2-methylphenyl)-7-(methylamino)thieno[2,3-b]pyrazine-6-carboxamide]: the 50% inhibitory concentration (IC50) in test [1] (setting [3]) was below 100 nM; in test [2], below 10 nM.

For the compound `Cc1ccc(NC(=O)c2cccc(C(C)(C)C#N)c2)cc1NC(=O)c1sc2ncc(Br)nc2c1N` [Example 3, 7-amino-2-bromo-N-(5-(3-(2-cyanopropan-2-yl)benzamido)-2-methylphenyl)thieno[2,3-b]pyrazine-6-carboxamide], the IC50 in test [1] (setting [4]) is 100 to 1000 nM; in test [2] it was below 100 nM.

Consider `Cc1ccc(NC(=O)c2cccc(C(C)(C)C#N)c2)cc1NC(=O)c1sc2ncc(N(C)C)nc2c1N` [Example 4, 7-amino-N-(5-(3-(2-cyanopropan-2-yl)benzamido)-2-methylphenyl)-2-(dimethylamino)thieno[2,3-b]pyrazine-6-carboxamide], for which the IC50 is below 100 nM in test [1] (setting [3]) and below 10 nM in test [2].

With `Cc1ccc(NC(=O)c2cccc(C(C)(C)C#N)c2)cc1NC(=O)c1sc2ncc(NCCN(C)C)nc2c1N` [Example 5, 7-amino-N-(5-(3-(2-cyanopropan-2-yl)benzamido)-2-methylphenyl)-2-(2-(dimethylamino)ethylamino)thieno[2,3-b]pyrazine-6-carboxamide], the half-inhibitory concentration (IC50) in test [1] (setting [4]) was 100 to 1000 nM; in test [2] it was below 10 nM.

In the case of `CNc1cnc2sc(C(=O)Nc3cc(NC(=O)c4cccc(C(C)(C)C#N)c4)ccc3C)c(N)c2n1` [Example 6, 7-amino-N-(5-(3-(2-cyanopropan-2-yl)benzamido)-2-methylphenyl)-2-(methylamino)thieno[2,3-b]pyrazine-6-carboxamide], the half-inhibitory concentration (IC50) in test [1] (setting [3]) was below 100 nM; in test [2], below 10 nM.

Turning to `CCNc1cnc2sc(C(=O)Nc3cc(NC(=O)c4cccc(C(C)(C)C#N)c4)ccc3C)c(N)c2n1` [Example 7, 7-amino-N-(5-(3-(2-cyanopropan-2-yl)benzamido)-2-methylphenyl)-2-(ethylamino)thieno[2,3-b]pyrazine-6-carboxamide], the half-inhibitory concentration (IC50) in test [1] (setting [3]) and in test [2] was below 100 nM each time.

Regarding `Cc1ccc(NC(=O)c2cccc(C(C)(C)C#N)c2)cc1NC(=O)c1sc2ncc(N3CCN(C)CC3)nc2c1N` [Example 8, 7-amino-N-(5-(3-(2-cyanopropan-2-yl)benzamido)-2-methylphenyl)-2-(4-methylpiperazin-1-yl)thieno[2,3-b]pyrazine-6-carboxamide], the IC50 in test [1] (setting [4]) is 100 to 1000 nM; in test [2], below 10 nM.

As for `Cc1ccc(NC(=O)c2cccc(C(C)(C)C#N)c2)cc1NC(=O)c1sc2ncc(N3CCOCC3)nc2c1N` [Example 9, 7-amino-N-(5-(3-(2-cyanopropan-2-yl)benzamido)-2-methylphenyl)-2-morpholinothieno[2,3-b]pyrazine-6-carboxamide], the IC50 in test [1] (setting [3]) was below 100 nM; in test [2], below 10 nM.

Take `COCCNc1cnc2sc(C(=O)Nc3cc(NC(=O)c4cccc(C(C)(C)C#N)c4)ccc3C)c(N)c2n1` [Example 10, 7-amino-N-(5-(3-(2-cyanopropan-2-yl)benzamido)-2-methylphenyl)-2-(2-methoxyethylamino)thieno[2,3-b]pyrazine-6-carboxamide]: the IC50 in test [1] (setting [3]) was below 100 nM; in test [2], below 10 nM.

As to `Cc1ccc(NC(=O)c2cccc(C(C)(C)C#N)c2)cc1NC(=O)c1sc2ncc(NC3CCOCC3)nc2c1N` [Example 11, 7-amino-N-(5-(3-(2-cyanopropan-2-yl)benzamido)-2-methylphenyl)-2-(tetrahydro-2H-pyran-4-ylamino)thieno[2,3-b]pyrazine-6-carboxamide], the concentration for half-maximal inhibition (IC50) in test [1] (setting [3]) and in test [2] was below 100 nM each time.

Consider `CNc1cnc2cc(C(=O)Nc3cc(NC(=O)c4cccc(C(C)(C)C#N)c4)ccc3C)sc2n1` [Example 59, N-(5-(3-(2-cyanopropan-2-yl)benzamido)-2-methylphenyl)-3-(methylamino)thieno[2,3-b]pyrazine-6-carboxamide], for which the IC50 in test [1] (setting [4]) was in the range of 100 to 1000 nM.

As to `CCOc1cnc2cc(C(=O)Nc3cc(NC(=O)c4cccc(C(C)(C)C#N)c4)ccc3C)sc2n1` [Example 71, N-(5-(3-(2-cyanopropan-2-yl)benzamido)-2-methylphenyl)-3-ethoxythieno[2,3-b]pyrazine-6-carboxamide], the half-maximal inhibitory concentration (IC50) in test [2] is below 100 nM.

Regarding `Cc1ccc(C(=O)Nc2cccc(C(F)(F)F)c2)cc1NC(=O)c1sc2nccnc2c1N` [Example 74, 7-amino-N-(2-methyl-5-(3-(trifluoromethyl)phenylcarbamoyl)phenyl)thieno[2,3-b]pyrazine-6-carboxamide], the IC50 in test [2] was below 100 nM.

Regarding `CCOc1cnc2sc(C(=O)Nc3cc(NC(=O)c4cccc(C(C)(C)C#N)c4)ccc3C)cc2n1` [Example 76, N-(5-(3-(2-cyanopropan-2-yl)benzamido)-2-methylphenyl)-2-ethoxythieno[2,3-b]pyrazine-6-carboxamide], the concentration for half-maximal inhibition (IC50) in test [2] was below 100 nM.
